From paper PMC9768754, “Enriching Chemical Space of Bioactive Scaffolds by New Ring Systems: Benzazocines and Their Metal Complexes as Potential Anticancer Drugs” (Inorganic Chemistry, 2022)
Where two headings read alike, the source gives them in different places.

Assays:
[1] = Stability in aqueous solution containing 1% DMSO by UV-vis spectroscopy; format: physicochemical; settings: over 48 h
Protocol: The stability of ligands HL^2 and HL^3 in aqueous solution containing 1% DMSO over 24 and 48 h was monitored by UV–vis spectroscopy (Figure S30 in the Supporting Information). Similarly, the behavior of complexes 1a and 1b as well as 2 and 3 was investigated in aqueous solutions containing 1% DMSO over 12 and 48 h by optical spectroscopy (Figures S31 and S32). […] High thermodynamic and kinetic stability of five-coordinate complexes reported herein can presumably be explained in terms of hard and soft acids and bases theory. Cu^2+ as a borderline metal ion is expected to bind to a soft base, for example, S atom instead of terminal N atom, as is the case for thiosemicarbazides. However, the hard–soft character of the metal ion might be altered by the other ligands attached due to symbiotic effects.[30] This might be the case herein, where bonding of copper(II) to four hard base ligands, namely, to two N atoms (N7 and N15 in Figure 1) and two Cl^– co-ligands, as well as to one borderline base N(pyridine) atom, can reduce the softness of Cu^2+, leading to increased stability of the complexes.

[2] = Solubility in water/1% DMSO; format: physicochemical
[3] = system: MRC-5; assay: MTT cytotoxicity assay, monolayer culture; format: cell-based, human; settings: non-malignant cell line, read-out: IC50 (μM) ± S.D. MRC-5
Excerpt: (§1) The cytotoxicity of metal-free indolobenzazocines HL^1–HL^5 and their metal complexes 1a, 1b, and 2–5 was investigated by the colorimetric MTT assay in a panel of four human cancer cell lines, namely, human colon carcinoma HCT116 and LS-174, breast adenocarcinoma MDA-MB-361, and lung adenocarcinoma A549, as well as in human non-malignant cell line MRC-5 maintained as monolayer culture. Cisplatin or cis-diamminedichloridoplatinum(II) (CDDP), a well-known chemotherapeutic agent, was used as a positive control. The results obtained after 72 h of continuous drug action are presented as IC50 values (μM) in Table 1.
(§2) Human tumor cell lines derived from human colorectal carcinoma, LS-174 and HCT116, human breast adenocarcinoma, MDA-MB-361, human lung adenocarcinoma, A549, and non-tumor human fetal lung fibroblast cell line, MRC-5, were maintained as a monolayer culture in the Roswell Park Memorial Institute (RPMI) 1640 nutrient medium (Sigma Chemicals Co, USA). RPMI 1640 medium was prepared in sterile ionized water, supplemented with penicillin (100 IU/mL), streptomycin (200 μg/mL), 4-(2-hydroxyethyl) piperazine-1-ethanesulfonic acid (HEPES) (25 mM), L-glutamine (3 mM), and 10% of heat-inactivated fetal calf serum (FCS) (pH = 7.2). The cells were grown at 37 °C in a humidified atmosphere containing 5% CO2.
(§3) Cells were seeded into 96-well culture plates (Thermo Scientific Nunc) at cell densities of 5000 cells per well (HCT116, A549, and MRC-5) and 8000 cells/well (LS-174 and MDA-MB-361) in 100 μL of cell culture medium and left overnight. Eleven tested compounds were dissolved in DMSO to the stock concentration of 20 mM immediately before the experiment, whereas further dilutions were made in the culture medium so that the final concentration of DMSO never exceeded 1% (v/v). Cisplatin (cis-diamminedichloridoplatinum(II), CDDP) was used as a reference compound. After 72 h of continuous incubation, MTT solution (3-(4.5-dimethylthiazol-2-yl)-2.5-diphenyltetrazolium bromide, Sigma-Aldrich) was added to each well (5 mg/mL).[63] The culture plates were incubated at 37 °C for the next 4 h, and finally, 10% sodium dodecyl sulfate (SDS) was added to dissolve formed formazan crystals. Absorbances were measured after 24 h on a microplate reader (Thermo Labsystems Multiscan EX 200–240 V) at a wavelength of 570 nm.

[4] = system: HCT116; assay: MTT cytotoxicity assay, monolayer culture; format: cell-based, human; settings: 72 h continuous drug action, 2D monolayer, read-out: IC50 (μM) ± S.D. HCT116
Excerpt: as §1, §2, §3

[5] = system: A549; assay: MTT cytotoxicity assay, monolayer culture; format: cell-based, human; settings: 2D monolayer, read-out: IC50 (μM) ± S.D. A549
Excerpt: as §1, §2, §3

[6] = system: MDA-MB-361; assay: MTT cytotoxicity assay, monolayer culture; format: cell-based, human; settings: 72 h continuous drug action, 2D monolayer, read-out: IC50 (μM) ± S.D. MDA-MB-361
Excerpt: as §1, §2, §3

[7] = system: LS-174; assay: MTT cytotoxicity assay, monolayer culture; format: cell-based, human; settings: 2D monolayer, read-out: IC50 (μM) ± S.D. LS-174
Excerpt: as §1, §2, §3

[8] = system: HCT116 cells; assay: Annexin V-FITC/PI apoptosis assay by flow cytometry; format: cell-based, human; settings: HCT116, 48 h, 3× IC50; non-treated control 2.29%
Excerpt: The obtained experimental data are presented in Figure 4 as percentages of early apoptotic cells (Annexin V-positive/PI-negative staining), late apoptotic and necrotic cells (Annexin V-positive/PI-positive staining), and dead cells (Annexin V-negative/PI-positive staining). By the current test (BD Pharmingen protocol)[39] for the cells which are already dead (Annexin V-negative/PI-positive staining), we cannot distinguish between types of the occurred cell death.
Quantitative analysis of apoptotic and necrotic cell death induced by the investigated complexes and CDDP was performed by Annexin V-FITC/PI assay. 2 × 10^5 HCT116 or 3 × 10^5 LS-174 cells were seeded into six-well plates (Thermo Scientific Nunc), and after 24 h of growth, cells were treated with tested compounds or CDDP. Following the 24 h and 48 h incubation time, cells were harvested and resuspended in 200 μL 1 × Binding Buffer (10 mM HEPES/NaOH pH 7.4, 140 mM NaCl, 2.5 mM CaCl2). 100 μL of the cell suspension (∼1 × 10^5 cells) was transferred to a 5 mL round-bottom polystyrene tube (Falcon, Corning) and mixed with 5 μL of both FITC Annexin V (BD Pharmingen[39]) and PI (50 μg/mL in PBS).[65] […] Samples were analyzed using an FACS BD Calibur flow cytometer (Becton–Dickinson, Heidelberg Germany) and Cell Quest computer software.

[9] = system: HCT116 MCTS; assay: MTT assay in 3D multicellular tumor spheroid (MCTS) model; format: cell-based, human; settings: 3D MCTS, 72 h continuous drug action, read-out: IC50 (μM) ± S.D. HCT116, 3D cell culture model
Excerpt: (§4) Due to the complex tissue environment, 3D multicellular tumor spheroid (MCTS) models mimic the in vivo architecture closer than 2D cell cultures, thereby allowing more precise prediction of effectiveness of organic drug candidates as well as metal-based ones in animal models.[41]−[44] The efficacy of HL^5, 5, and cisplatin in the 3D MCTS model was investigated in two human colorectal cancer cell lines (CRC) LS-174 and HCT116. We used ultra-low attachment (ULA) plates for the growth of spheroids. Spheroids were incubated for 72 h and then photographed, and IC50 values were determined using MTT assay. Tumor spheroids of diameter >500 μm selected for treatment reflect to a certain extent the tumor complexity as they are composed of several specialized areas and layers where cells show different phenotypic, functional, and metabolic behaviors.[45] They display an organized architecture with an external layer composed of proliferating cells, an intermediate zone composed of quiescent and senescent cells, and an inner apoptotic and necrotic core which is the result of the reduced distribution of nutrients and oxygen in these areas.[46],[47]
(§5) The MCTSs as 3D cell culture models were established by seeding cells at optimized densities between 500 and 1500 cells/well in the ultra-low attachment (ULA) U96-well plate Thermo Scientific Nunclon Sphera in their respective culture media.[34] […]

[10] = system: LS-174 MCTS; assay: as above; format: cell-based, human; settings: 3D MCTS, 72 h continuous drug action, read-out: IC50 (μM) ± S.D. LS-174, 3D cell culture model
Excerpt: as §4, §5

SMILES: Cc1ccc(C(C)C)cc1.O=C1NCCc2ccccc2-c2[nH]c3ccc([N+]4=Cc5cccc[n+]5[Os-]4[Cl])cc3c21.[Cl-] [1b]
- stability by UV-vis absorption spectra [1]: remained intact
- Solubility in water/1% DMSO [2]: ≥ 1.0 mg mL^–1
- IC50 ([3]; 72 h continuous drug action): 84.8 ± 6.6 µM
- IC50 [4]: 40.2 ± 6.7 µM
- IC50 ([5]; 72 h continuous drug action): 91 ± 9.3 µM
- IC50 [6]: 71.9 ± 2.6 µM
- IC50 ([7]; 72 h continuous drug action): 182 ± 2.1 µM

SMILES: N.N.[Cl][Pt][Cl] [CDDP, cis-diamminedichloridoplatinum(II), reference compound]
- early apoptotic cells (Annexin V-positive/PI-negative) [8]: 19.14%
- IC50 ([3]; 72 h continuous drug action): 8 ± 1.1 µM
- IC50 [4]: 13.6 ± 1.1 µM
- IC50 ([5]; 72 h continuous drug action): 17.4 ± 3.5 µM
- IC50 [6]: 26.4 ± 3.7 µM
- IC50 ([7]; 72 h continuous drug action): 19 ± 0.5 µM
- IC50 [9]: 19.6 ± 2.2 µM
- IC50 [10]: 17.8 ± 1.2 µM

SMILES: Cc1ccc(C(C)C)cc1.O=C1NCCc2ccccc2-c2[nH]c3ccc([N+]4=Cc5cccc[n+]5[Ru-]4[Cl])cc3c21.[Cl-] [1a]
- stability by UV-vis absorption spectra [1]: remained intact
- IC50 ([3]; 72 h continuous drug action): 89.8 ± 2.1 µM
- IC50 [4]: 32.9 ± 7.1 µM
- IC50 ([5]; 72 h continuous drug action): 160 ± 18.2 µM
- IC50 [6]: 91.2 ± 3.5 µM
- IC50 ([7]; 72 h continuous drug action): > 200 µM

SMILES: O=C1NCCc2ccccc2-c2[nH]c3ccc(/N=C/c4ccccn4)cc3c21 [HL^1]
- IC50 ([3]; Homo sapiens, MRC5, 72 h continuous drug action): 168 ± 15.8 µM
- IC50 ([5]; Homo sapiens, A549, 72 h continuous drug action): > 200 µM
- IC50 ([7]; Homo sapiens, LS174, 72 h continuous drug action): 191 ± 5.8 µM
